Earlier results, collected in patent US20050266077A1, “Resorbable matrices with coatings for delivery of bioactive compounds” (Royal Biomedical, Inc., priority 2002, published 2005).

Settings: exothermic reaction, matrix temperatures as high as 100° C

inactivation of antibiotic: inactivated
Substance: polymyxin
